The test system of assay [1] is human fetal lung-derived normal fibroblast MRC-5 cells. The assay can be described thus: Cytotoxicity test (MTT assay). In kind it is cell-based. The following applies: for IC50: Homo sapiens, MRC5, 168 h, seven days culture, MTT assay, read-out: IC50 value MRC-5 cell; for Selectivity index (MRC-5 cytotoxicity IC50 / anti-trypanosoma IC50): (IC50 values for cytotoxicity)/(IC50 values for anti-trypanosoma activity). Here is the method:
J. Antibiotics, 54: 658 to 663, (2001)]. That is, the human fetal lung-derived normal fibroblast MRC-5 cells [can be provided by Dr. […], Belgium)] were maintained and subcultured in the MEM-medium containing 10% bovine fetal serum (FCS) and antibiotics and were used as the host cell model. […] The presence or absence of the proliferation of the MRC-5 cells was measured by colorimetric quantification by the MTT assay. […] Also, the selectivity index (SI) was calculated as (IC50 values for cytotoxicity)/(IC50 values for anti-trypanosoma activity).
A general note: Tetrazolium assays rely on reduction of a dye to a coloured formazan, in cell work by metabolically active cells.

In assay [2] the test system is Trypanosoma brucei brucei GUTat 3.1 strain. The assay can be described thus: In vitro inhibitory activity on trypanosoma protozoa proliferation (Alamar Blue). Conditions: for IC50: Trypanosoma brucei, 72 h, read-out: IC50 value Trypanosoma brucei brucei GUTat3.1 strain. (Alamar Blue is a resazurin reagent that responds to reducing activity.)
Assay [3] deals with the microorganisms listed in Table 7. The assay can be described thus: Antibacterial activity, paper disc method, overall statement. In kind it is cell-based. Conditions: summary in words. Here is the method: The antibacterial activities of Mangromicins A, B and C of the present invention were measured by the following method. Filter paper discs (Advantec, a diameter of 6 mm) were impregnated with 10 μL of 1 mg/mL solutions of Mangromicins A, B and C in methanol, and air-dried for a certain period of time to remove the solvent. Subsequently, the discs were placed on agar plates each containing the test bacteria shown in Table 7, followed by culturing at 35° C. for 24 hours. The diameter of the growth inhibiting zones formed around the paper discs was measured.

The subject of assay [4] is Bacillus subtilis ATCC6633. The assay can be described thus: Antibacterial activity, paper disc method. It counts as cell-based. The following applies: 6 mm disc, 10 μL of 1 mg/mL, 35° C., 24 hours, read-out: the diameter of inhibiton zones.

Converted amounts (≈) assume the structure as drawn.

As usually defined, the IC50 is the concentration at which inhibition is half-maximal. With `NCCCC(N)(C(=O)O)C(F)F` (centres unmarked) [Eflornithine, eflornithine, reference compound], the IC50 in assay [1] was above 100 µg/mL; in assay [2], 2.27 µg/mL (≈ 12.5 µM).
In the case of `CCCC1C(O)=C2CCC3(C)CC(C)C(O3)C(O)C(O)C(C)C(=O)CC1OC2=O` (centres unmarked) [Mangromicin A], the “Selectivity index (MRC-5 cytotoxicity IC50 / anti-trypanosoma IC50)” value in assay [1] stood at 6.6. The IC50 in assay [1] came to 16 µg/mL (≈ 39 µM); in assay [2] it was 2.44 µg/mL (≈ 5.94 µM). In addition, the “anti-trypanosoma activity compared to suramin and eflornithine” value in assay [2] (T.b.b. GUTat 3.1 strain, relative to suramin and eflornithine) was “equivalent or slightly inferior”. Also, the “antibacterial activities on the microorganisms listed in Table 7” value in assay [3] was “almost no antibacterial activities”.
In the case of `CCCC1C(O)=C2CCC3(C)CC(C)C(O3)C(O)/C=C(\C)C(=O)CC1OC2=O` (centres unmarked) [Mangromicin B], in assay [1], the “Selectivity index (MRC-5 cytotoxicity IC50 / anti-trypanosoma IC50)” value is given as 2.1. For the same compound, the IC50 was found to be 92.6 µg/mL (≈ 236 µM) in assay [1] and 43.4 µg/mL (≈ 111 µM) in assay [2]. Moreover, the zone of inhibition at 1000 µg/mL in assay [4] is 7 mm. The “antibacterial activities on the microorganisms listed in Table 7” value in assay [3] is “almost no antibacterial activities”.
With `Cc1ccc(C(=O)Nc2ccc(S(=O)(=O)O)c3cc(S(=O)(=O)O)cc(S(=O)(=O)O)c23)cc1NC(=O)c1cccc(NC(=O)Nc2cccc(C(=O)Nc3cc(C(=O)Nc4ccc(S(=O)(=O)O)c5cc(S(=O)(=O)O)cc(S(=O)(=O)O)c45)ccc3C)c2)c1` [Suramin, suramin, reference compound], the results for the IC50 in assay [1] and in assay [2] were above 100 µg/mL and 1.58 µg/mL (≈ 1.22 µM), respectively.

(Values after patent publication US9000194B2, “Mangromicin compound and production method therefor” (The Kitasato Institute, priority 2011, dated 2015).)
